Usually IC50 stands for the concentration that gives 50% inhibition. One may read the EC50 as the concentration needed to bring the measured effect to its halfway point.

The results in this text go back to US11002728B2, “Method for evaluating activity of G protein-coupled receptor (GPCR)” (RIKEN, priority 2017, dated 2021).

One experiment deals with HTR2A (Homo sapiens, UniProt P28223). The experiment in a line: Single-molecule imaging of GPCR diffusive dynamics (DAv) in HEK293 cells. The format is cell-based. As to conditions: 10 μM ligand, mean ± standard error, n=20 cells, vehicle 0.079.
HTR2A, sequence (P28223 whole entry): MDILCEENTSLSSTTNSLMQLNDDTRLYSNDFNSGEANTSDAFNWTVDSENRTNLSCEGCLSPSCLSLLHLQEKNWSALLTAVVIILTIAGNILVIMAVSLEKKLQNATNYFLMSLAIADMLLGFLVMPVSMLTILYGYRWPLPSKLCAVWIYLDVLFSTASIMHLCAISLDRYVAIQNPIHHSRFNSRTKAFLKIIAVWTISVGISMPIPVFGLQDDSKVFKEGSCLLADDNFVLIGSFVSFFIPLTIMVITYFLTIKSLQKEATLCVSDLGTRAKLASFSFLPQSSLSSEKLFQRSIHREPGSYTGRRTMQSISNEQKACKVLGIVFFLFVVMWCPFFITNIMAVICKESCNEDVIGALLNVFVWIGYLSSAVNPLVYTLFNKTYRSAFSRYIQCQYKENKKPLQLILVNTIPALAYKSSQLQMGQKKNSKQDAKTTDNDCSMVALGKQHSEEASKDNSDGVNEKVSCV
For the next experiment, the target named is F2R (Homo sapiens, UniProt P25116). As to conditions: F2R in HEK293 cells, 10 μM ligand, mean ± standard error, n=20 cells; vehicle 0.084.
F2R, sequence (P25116 22-425): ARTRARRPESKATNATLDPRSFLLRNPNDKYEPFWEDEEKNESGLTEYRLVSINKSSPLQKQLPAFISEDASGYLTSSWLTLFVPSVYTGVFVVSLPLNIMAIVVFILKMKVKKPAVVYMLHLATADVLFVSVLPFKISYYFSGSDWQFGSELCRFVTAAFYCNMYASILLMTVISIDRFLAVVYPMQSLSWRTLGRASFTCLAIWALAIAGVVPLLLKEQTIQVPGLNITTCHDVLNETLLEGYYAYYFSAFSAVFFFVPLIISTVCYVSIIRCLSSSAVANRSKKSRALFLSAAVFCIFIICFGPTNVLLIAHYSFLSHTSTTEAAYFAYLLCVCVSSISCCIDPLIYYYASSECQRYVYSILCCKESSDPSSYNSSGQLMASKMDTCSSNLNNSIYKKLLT
Experiment [1] concerns the target T1, mGluR3 (Mus musculus, UniProt Q9QYS2). Kind of experiment: Two-color single-molecule imaging, colocalization of TMR-labeled mGluR3 and GFP-labeled CLC. The format is cell-based. Also noted: expressed in transfected cells; host or cells: HEK293 (pCAG-GS vector). Particulars: active (100 μM LY379268) versus inactive state (100 nM LY341495). From the text:
Colocalization of TMR-labeled mGluR3 and GFP-labeled CLC was defined as a track in which each bright spot was within 100 nm in the same frame. The positional accuracy of the bright spot tracking of TMR-labeled mGluR3 and GFP-labeled CLC was estimated to be 28 nm and 31 nm, respectively, from measurement of fixed samples. These values correspond to 1 SD of the displacement when fixed molecules were tracked. After image processing, the error between the positions of the same gold particle in two channels was estimated to be 18 nm. Accordingly, 100 nm corresponds to about 2 SD of the positional accuracy considering the total error. The time constant of colocalization was calculated by fitting the cumulative frequency distribution (FIG. 9(f)) by Expression 8.
The proportion of each component was calculated from the proportions of A1 and A2.

The target of experiment [2] is T1, mGluR3. The experiment in a line: Single-molecule imaging of mGluR3 diffusive dynamics (MSD, DAv, VB-HMM diffusion states) in HEK293 cells. As to conditions: for IC50: IC50 of the LY379268 dependent change of DAv; for change of MSD of mGluR3: MSD-Δt plots, FIG. 1(c to e).
Procedure: A DNA sequence encoding HaloTag7 (Promega Corporation) was amplified by PCR and was fused to the C-terminal sequence of mouse mGluR3 using In-Fusion HD Cloning Kit (Clontech Laboratories, Inc.). In order to quantify the expression level of HaloTag-fused mGluR3 by Western blotting, the epitope sequence of a monoclonal antibody Rho 1D4 recognizing the C-terminus of bovine rhodopsin was added immediately after the HaloTag sequence. Complementary DNAs of mGluR3 were inserted into a pCAG-GS vector^21.
HEK293 cells were cultured in a DMEM/F12 (Gibco) medium added with 15 mM HEPES (pH 7.3), 29 mM NaHCO3, and 10% FBS at 37° C. in an environment containing 5% CO2. On the day before the observation, the HEK293 cells on a 60-mm dish (IWAKI) with a cover glass (Matsunami Glass Ind., Ltd.) were transfected with a plasmid DNA (pDNA) of HaloTag-fused mGluR3 using Lipofectamine 3000 (Invitrogen). A transfection reagent and pDNA (pDNA (0.1 μg), P3000 reagent (0.2 μL), Lipofectamine 3000 reagent (2.5 μL), Opti-MEM (120 μL, Gibco)) were mixed, and the mixture was then left to stand at room temperature for 15 minutes and was added to HEK293 cells on the 60-mm dish containing DMEM/F12 (3 mL). In two-color single-molecule measurement, pDNA (0.02 μg) of GFP-fused CLC was transfected together with HaloTag-fused mGluR3. After culturing at 37° C. in an environment containing 5% CO2 for 3 hours, the medium was replaced with DMEM (3 mL, Sigma) not containing phenol red and containing 10% FBS. After culturing overnight, the medium was replaced with 3 mL of DMEM containing 300 nM HaloTag TMR ligand (Promega Corporation) and not containing phenol red and FBS, followed by being left to stand at 37° C. in an environment containing 5% CO2 for 30 minutes to specifically stain the HaloTag-fused mGluR3 of the HEK293 cells. […] In single-molecule imaging, the cover glass was placed in a metal chamber (Invitrogen) and was washed with 400 μL of Hanks' balanced salt solution (HBSS (Sigma); containing 15 mM HPEPS (pH 7.1) and not containing NaHCO3) five times, followed by observation at room temperature (25° C.). TMR-labeled mGluR3 on the cell membranes of the HEK293 cells were excited with total internal reflection illumination on an inverted fluorescence microscope (TE2000, Nikon Corporation), and single-molecule imaging was performed. […] The fluorescences of TMR and GFP were wavelength dependently separated with dichroic mirror 59004b (Chroma) in a two-optical path branching system (M202J, Nikon Corporation), were allowed to pass through a band pass filter (GFP: ET525/50m, TMR: ET605/70m, Chroma), and were then photographed simultaneously by two EM-CCD cameras (ImagEM, Hamamatsu Photonics K.K.).
Experiment [3] addresses T1, mGluR3. The experiment in a line: [35S]-GTPγS binding experiment (G protein activation ability of mGluR3, purified Go protein). The format is biochemical. Further details: expressed in transfected cells; host or cells: HEK293 (pCAG-GS vector). A general note: Binding of GTPγS marks nucleotide exchange on a G protein.
Procedure: Each mixture was left to stand at 20° C. for 30 minutes. [^35S]-GTPγS was added to the mixture to start GDP/GTPγS exchange reaction. The composition except the ligand of the final mixture solution (20 μL) was 50 mM HEPES (pH 6.5), 140 mM NaCl, 5 mM MgCl2, 0.01% DM, 0.03% sodium cholate, 5 nM [^35S]-GTPγS, 500 nM GTPγS (cold), and 500 nM GDP. A reaction stop solution (200 μL, 20 mM Tris/Cl (pH 7.4), 100 mM NaCl, 25 mM MgCl2, 500 nM GTPγS (cold), and 500 nM GDP) was added to the mixture solution at 30 seconds after the addition of [^35S]-GTPγS to stop the incorporation of [^35S]-GTPγS into G protein, and immediately all the reaction solution was passed through a nitrocellulose membrane with the dot-blot apparatus to separate [^35S]-GTPγS bound to G protein. Subsequently, the nitrocellulose membrane was washed with buffer C (200 μL, 20 mM Tris/Cl (pH 7.4), 100 mM NaCl, and 25 mM MgCl2) three times and was dried for 1 hour. Each dot was excised from the nitrocellulose membrane and was placed in a cocktail for a liquid scintillation counter (Ultima Gold, PerkinElmer Life Sciences, Inc.), and the binding amount of [^35S]-GTPγS was quantified with LS6500 (Beckman Coulter).
For experiment [4], the target named is T1, mGluR3. The experiment in a line: [3H]-LY341495 binding experiment, HEK293 membrane fraction expressing mGluR3.
Procedure: HEK293 cells cultured to about 40% confluence in a 100-mm dish were transfected with mGluR3 pDNA and an empty pCAG vector as a mock each at 10 μg/dish by a calcium phosphate method. After the transfection, the cells were cultured in DMEM/F12 medium containing 10% FBS for 48 hours and were then collected, followed by centrifugation. The precipitation was washed with 1 mL of PBS (pH 7.4). Centrifugation was further performed. The precipitation was placed in a 1.5-mL tube and was homogenized with a pellet mixer in buffer A (50 mM HEPES (pH 6.5), 140 mM NaCl) in which 50% sucrose was dissolved, followed by centrifugation to separate supernatant and precipitate. […]
A cell membrane fraction containing mGluR3 was resuspended in HBSS (containing 15 mM HEPES (pH 7.1) and not containing NaHCO3, Sigma) having the same composition as that used in the single-molecule measurement, and the binding of [^3H]-LY341495 to the membrane was measured at room temperature. […] Each dot was excised from the nitrocellulose membrane and was placed in a cocktail for a liquid scintillation counter (Ultima Gold, PerkinElmer Life Sciences, Inc.), and the binding amount of [^3H]-LY341495 was quantified with LS6500 (Beckman Coulter). […] Kd was calculated from fitting result by an expression obtained by replacing the EC50 in Expression 3 mentioned above with kd. […] The IC50 was calculated based on Expression 4.
The target in another experiment is HRH1 (Homo sapiens, UniProt P35367). As to conditions: HRH1 in HEK293 cells, 1 μM ligand, mean ± standard error, n=20 cells; vehicle 0.064.
HRH1, sequence (P35367 whole entry): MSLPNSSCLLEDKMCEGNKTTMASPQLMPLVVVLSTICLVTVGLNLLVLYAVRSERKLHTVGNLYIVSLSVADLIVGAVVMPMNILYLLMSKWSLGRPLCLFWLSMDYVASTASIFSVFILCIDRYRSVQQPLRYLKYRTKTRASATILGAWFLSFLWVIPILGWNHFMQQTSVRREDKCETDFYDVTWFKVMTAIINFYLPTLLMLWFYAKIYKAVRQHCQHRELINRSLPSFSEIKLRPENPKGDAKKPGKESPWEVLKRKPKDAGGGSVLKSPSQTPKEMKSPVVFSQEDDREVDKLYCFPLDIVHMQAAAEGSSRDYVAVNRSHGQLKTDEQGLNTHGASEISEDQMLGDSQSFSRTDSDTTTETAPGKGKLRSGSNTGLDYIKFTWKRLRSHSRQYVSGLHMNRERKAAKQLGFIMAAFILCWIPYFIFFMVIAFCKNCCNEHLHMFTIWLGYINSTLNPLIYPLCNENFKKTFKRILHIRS
In another experiment the target is T2, FFAR4 (Homo sapiens, UniProt Q5NUL3).
T2 construct: host or cells: HEK293
T2 sequence (Q5NUL3 1-361): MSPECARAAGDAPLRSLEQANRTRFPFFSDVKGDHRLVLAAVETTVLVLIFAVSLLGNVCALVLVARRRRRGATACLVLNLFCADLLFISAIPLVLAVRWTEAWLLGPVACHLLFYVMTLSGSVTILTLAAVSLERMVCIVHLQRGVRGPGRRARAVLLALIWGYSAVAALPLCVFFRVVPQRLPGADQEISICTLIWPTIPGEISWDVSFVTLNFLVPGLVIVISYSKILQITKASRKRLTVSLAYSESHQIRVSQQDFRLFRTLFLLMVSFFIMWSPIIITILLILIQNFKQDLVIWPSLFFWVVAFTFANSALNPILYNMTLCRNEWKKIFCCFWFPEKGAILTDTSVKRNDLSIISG
Kind of experiment: Single-molecule imaging of GPCR diffusive dynamics (DAv) in HEK293 cells. In kind it is cell-based. As to conditions: 100 nM ligand, mean ± standard error, n=20 cells, vehicle 0.083.

The target of the next experiment is T3, CXCR4 (Homo sapiens, UniProt P61073).
T3 construct: host or cells: HEK293
T3 sequence (P61073 whole entry): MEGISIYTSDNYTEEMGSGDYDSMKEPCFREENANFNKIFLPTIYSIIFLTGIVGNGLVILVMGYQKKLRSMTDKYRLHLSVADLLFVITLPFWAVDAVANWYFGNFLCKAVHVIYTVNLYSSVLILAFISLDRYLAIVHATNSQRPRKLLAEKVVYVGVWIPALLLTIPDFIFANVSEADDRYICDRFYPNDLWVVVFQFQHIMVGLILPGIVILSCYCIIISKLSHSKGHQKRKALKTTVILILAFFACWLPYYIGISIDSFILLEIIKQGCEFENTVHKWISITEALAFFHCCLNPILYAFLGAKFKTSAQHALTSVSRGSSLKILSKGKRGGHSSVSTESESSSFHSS
The experiment is described as above. The format is cell-based. As to conditions: 20 nM ligand, mean ± standard error, n=20 cells, vehicle 0.087.

T1 sequence (Q9QYS2 23-879): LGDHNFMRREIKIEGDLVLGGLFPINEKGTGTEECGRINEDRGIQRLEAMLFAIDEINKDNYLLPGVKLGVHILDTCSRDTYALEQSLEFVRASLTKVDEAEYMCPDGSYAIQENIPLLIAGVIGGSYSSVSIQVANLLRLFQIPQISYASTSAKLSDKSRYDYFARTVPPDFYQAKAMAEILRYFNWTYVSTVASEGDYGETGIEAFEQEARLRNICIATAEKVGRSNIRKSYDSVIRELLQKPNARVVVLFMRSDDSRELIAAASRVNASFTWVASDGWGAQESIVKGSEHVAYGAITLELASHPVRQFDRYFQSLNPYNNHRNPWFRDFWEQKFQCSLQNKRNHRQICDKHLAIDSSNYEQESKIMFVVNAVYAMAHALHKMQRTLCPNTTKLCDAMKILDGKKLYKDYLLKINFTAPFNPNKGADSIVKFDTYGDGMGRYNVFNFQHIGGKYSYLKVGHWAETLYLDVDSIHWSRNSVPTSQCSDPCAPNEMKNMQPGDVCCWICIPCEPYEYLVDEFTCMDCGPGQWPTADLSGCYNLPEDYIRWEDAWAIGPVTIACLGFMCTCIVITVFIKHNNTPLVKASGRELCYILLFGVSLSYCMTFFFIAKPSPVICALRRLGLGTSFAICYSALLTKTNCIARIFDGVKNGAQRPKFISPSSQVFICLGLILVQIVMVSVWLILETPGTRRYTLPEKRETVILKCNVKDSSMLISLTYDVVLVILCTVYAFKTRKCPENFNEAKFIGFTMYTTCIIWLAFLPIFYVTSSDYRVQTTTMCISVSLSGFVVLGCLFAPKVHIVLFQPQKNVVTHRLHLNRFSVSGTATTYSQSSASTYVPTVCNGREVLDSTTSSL
Procedure for CXCR4: (§1) HEK293 cells were cultured in a DMEM/F12 (Gibco) medium added with 15 mM HEPES (pH 7.3), 29 mM NaHCO3, and 10% FBS at 37° C. in an environment containing 5% CO2. On the day before the observation, the HEK293 cells on a 60-mm dish (IWAKI) with a cover glass (Matsunami Glass Ind., Ltd.) were transfected with a plasmid DNA (pDNA) of HaloTag-fused mGluR3 using Lipofectamine 3000 (Invitrogen). A transfection reagent and pDNA (pDNA (0.1 μg), P3000 reagent (0.2 μL), Lipofectamine 3000 reagent (2.5 μL), Opti-MEM (120 μL, Gibco)) were mixed, and the mixture was then left to stand at room temperature for 15 minutes and was added to HEK293 cells on the 60-mm dish containing DMEM/F12 (3 mL). […] After culturing at 37° C. in an environment containing 5% CO2 for 3 hours, the medium was replaced with DMEM (3 mL, Sigma) not containing phenol red and containing 10% FBS. […] TMR-labeled mGluR3 on the cell membranes of the HEK293 cells were excited with total internal reflection illumination on an inverted fluorescence microscope (TE2000, Nikon Corporation), and single-molecule imaging was performed. […]
Procedure for FFAR4: as §1

As to `NCCc1c[nH]c2ccc(O)cc12` [serotonine], at HTR2A, the “DAv, Ligand” value is reported as 0.065 ± 0.0034 μm^2/s.

Turning to TRAP-6, the “DAv, Ligand” value on F2R is listed as 0.060 ± 0.0017 μm^2/s.

As to `N[C@@]1(C(=O)O)CO[C@H]2[C@H](C(=O)O)[C@H]21` [LY379268], on mGluR3 [1] (FIG. 10(e)), the “increase in the colocalization probability of mGluR3 and CLC” value is “about 1.6 fold”. In addition, the “increase of the Long-time constant of colocalization of mGluR3 and CLC” value on mGluR3 [1] (FIG. 10(g)) is recorded as “about two-fold”. In addition, the IC50 amounted to 1190 ± 20 nM against mGluR3 [2] (FIG. 4(a), absence of other ligands, n=20 cells); 1030 ± 80 nM on mGluR3 [2] (FIG. 4(b), presence of 100 nM LY341495, n=20 cells); 550 ± 80 nM on mGluR3 [4]. In addition, the “change of MSD of mGluR3” value on mGluR3 [2] (n=20 cells) is “decreased depending on the concentration”. Also, the “ligand-dependent change of the proportions of the diffusion states (VB-HMM)” value at mGluR3 [2] (concentration dependent, FIG. 5(c, d)) is “increases in the immobile and slow states and a decrease in the fast state”. On mGluR3 [2] (mGluR3 in HEK293 cells, 100 μM ligand, mean ± standard error, n=20 cells, vehicle 0.047), the “DAv, Ligand” value is 0.039 ± 0.0018 μm^2/s. Further, the EC50 at mGluR3 [3] (absence of other ligands, FIG. 4(e), n=3, read-out: EC50 of the LY379268-dependent increase of the G protein activation ability of mGluR3) turned out to be 25 ± 2.9 nM.

With `NCCc1c[nH]cn1` [histamine], on HRH1, the “DAv, Ligand” value was 0.045 ± 0.0025 μm^2/s.

For MNI137, the “effect on LY379268 concentration-dependent change of DAv” value on mGluR3 [2] (1 μM, presence of 100 nM LY341495, FIG. 4(b)) is “the LY379268 concentration-dependent decrease of DAv was suppressed”. Also, on mGluR3 [2] (n=20 cells), the “change of MSD of mGluR3” value is given as “the LY379268-dependent decrease of the MSD was suppressed”. The “effect on LY379268-dependent G protein activation ability” value at mGluR3 [3] (1 μM MNI137, 100 nM LY341495 present, FIG. 4(f)) was “suppresses the LY379268-dependent increase of G protein activation ability”. Also, the “influence on the binding affinity of LY379268” value on mGluR3 [4] (1 μM MNI137, competition with 100 nM [3H]-LY341495, FIG. 4(d)) was “did not influence the binding affinity of LY379268”.

Turning to `CC/C=C\C/C=C\C/C=C\C/C=C\C/C=C\C/C=C\CCC(=O)O` [DHA], the “DAv, Ligand” value on FFAR4 is reported as 0.048 ± 0.0073 μm^2/s.

As for “CXCL12: chemokine, agonist used on CXCR4”, the “DAv, Ligand” value in the experiment with CXCR4 is given as 0.068 ± 0.0017 μm^2/s.
